In test [1] the test system is LNCaP, PC-3M and DU-145 cell lines. The test can be described thus: Transepithelial electric resistance (TER). It is filed as cell-based. Particulars: 50 nM CT. The protocol:
(§1) Cells were plated on Transwell filters (0.4 μm pore size) and grown to confluency in complete medium (RPMI1640 containing 10% fetal bovine serum, 20 mM HEPES and antibiotics). TER of the cultures (in duplicate wells) was measured at several time intervals with EVOM volt-ohm meter as previously described (Shah et al, 2009). The readings were corrected for blank (TER values from the filter in bathing medium). The integrity and cell density of monolayers were carefully monitored.
Whether CT produces similar effects in LNCaP, PC-3M and DU-145 cell lines, which endogenously express CTR, was examined as shown in FIG. 1A. FIGS. 9A-9B depict the effect of CT on tight junction (TJ) disruption as measured using TER and PCP in the three prostate cancer cell lines—LNCaP, PC-3M, and DU-145. […] In FIG. 9B, cells were treated with and without 50 nM CT, and PCP determined by diffusion of ˜4 kDa TRITC-conjugated dextran from the upper to the lower chamber in one hour. The results are expressed as μg/ml/hour of TRITC-Dextran diffused ±SEM (n=6; *p<0.05 (−CT v +CT, One way ANOVA and Newman-Keul's test)). […] Cells were added to upper insert of invasion chambers with or without 50 nM CT, and cells that passed through the Matrigel™ barrier were counted after 48 h. The results are expressed as mean number of invaded cells per 400× field ±SEM (n=6; *p<0.05).

For test [2], the system named is PC-3M cells expressing ZO-1-wt or its ΔPDZ mutants. The test can be described thus: Transepithelial electric resistance (TER). It is filed as cell-based. Particulars: CT 50 nM. The protocol:
as §1
Since ZO-1 contains three PDZ domains, which of these interacts with CTR-C PDZ-binding motif was analyzed. PC-3M cells was used for this study because they are PC-3-derived, but co-express both CT and CTR, and are suitable to examine modulation of CTR action in response to mutations in ZO-1 (Chien et al., 2001). To knock down endogenous ZO-1 expression, PC-3M cells were stably transfected with constitutive ZO-1 shRNA expression vector (pSuper.neo system; shRNA duplex-5′-GACGAGAUAAUCCUCAUUUtt-3′ (SEQ ID NO:8) corresponding to 596-614 bp of ZO-1 mRNA). Since the constitutive presence of ZO-1 siRNA in PC-3M cells could interfere with the re-expression of ZO-1 wt or its ΔPDZ mutants, ZO-1 (wt or ΔPDZ mutants) cDNA expression vectors refractory to ZO-1 RNAi were generated by introducing a silent mutation in RNAi target sequence in the ZO-1 transgene. […]

This passage reports TER results from patent US9765115B2, “Inhibitors of metastasis, methods of generating such inhibitors and their therapeutic applications” (Board of Supervisors of Louisiana State University acting …, priority 2011, dated 2017).

With calcitonin [CT], the TER result in test [1] is listed as “reduced TER”; in test [2] (cells expressing ZO-1-ΔPDZ3), “no decrease in TER”; in test [2] (cells re-expressing ZO-1-wt, ΔPDZ1 or ΔPDZ2), “remarkable decline in TER”.
